Results as given in patent publication US20050042239A1, “Process for preparing biocide formulations” (priority 2003, published 2005).

Tests used:
[1] = system: algae; test: Dosing of micro-mixed emulsion to cooling tower water: control of algae; details: 3 ppm isothiazolone in cooling water of cooling tower
Protocol: A 50 wt. % solution of 4,5-dichloro-2-octyl-3-isothiazolone in benzyl alcohol is fed to an array of slit shaped interdigital micro-mixers at a feed rate of 50 mL/minute, combined with water fed to the micro-mixer at a feed rate of 600 mL/minute. The water contains no surfactants. The resulting emulsion exiting the micro-mixer it is directly dosed to cooling water in a 50,000 gallon […] cooling tower, where is effectively distributed and re-circulated throughout the cooling water. After about 20 minutes, the isothiazolone concentration in the cooling water reaches a desired concentration of 3 ppm and the emulsion feed is stopped. […] Focusing micro-mixers also produce similar results as compared to the micro-mixers described above. Melted 2-octyl-3-isothiazolone as a neat liquid is fed to an array of slit shaped interdigital micro-mixers at a feed rate of 50 mL/minute, combined with water fed to the micro-mixer at a feed rate of 600 mL/minute. The water contains no surfactants and solvents. The resulting emulsion exiting the micro-mixer it is directly dosed to cooling water in a 50,000 gallon […] cooling tower, where is effectively distributed and re-circulated throughout the cooling water. After about 20 minutes, the isothiazolone concentration in the cooling water reaches a desired concentration of 3 ppm and the emulsion feed is stopped. […]

[2] = system: mold; test: Dosing of micro-mixed emulsion to paper pulp slurry tank: mold proofing of paper; details: surfactant-free emulsion from 50 wt. % solution in benzyl alcohol (56 mL/minute) micro-mixed with water, charged to 10,000 liter pulp slurry tank
Protocol: A 10,000 liter pulp slurry tank has a continuous throughput averaging 6,600 liters/minute. A 50 wt. % solution of 4,5-dichloro-2-octyl-3-isothiazolone in benzyl alcohol is fed to an array of slit shaped interdigital micro-mixers at a feed rate of 56 mL/minute, combined with water fed to the micro-mixer at a feed rate of 600 mL/minute. The water contains no surfactants. The resulting emulsion exiting the micro-mixer is directly charged to water in the pulp slurry tank, where it is effectively distributed and re-circulated throughout the tank water. […] Focusing micro-mixers also produce similar results as compared to the micro-mixers described above.

Structure (SMILES) | control of algae in cooling water ([1]; surfactant- and solvent-free emulsion from melted neat liquid micro-mixed with water) | control of algae in cooling water ([1]; surfactant-free emulsion from 50 wt. % solution in benzyl alcohol micro-mixed with water) | mold proofing in paper prepared from treated pulp [2]
CCCCCCCCn1sccc1=O [2-octyl-3-isothiazolone] | Effective control of algae | – | –
CCCCCCCCn1sc(Cl)c(Cl)c1=O [4,5-dichloro-2-octyl-3-isothiazolone] | – | Effective control of algae | effective mold proofing
